{
  "source": "patent US8318815B2",
  "about": "“Method for treatment of tumors using nordihydroguaiaretic acid derivatives” (priority 1999, dated 2012)",
  "key": {"C3 tumor": {"tested_on": "C3 tumor", "experiment": "C3 tumor growth in mice, local (intratumoral) injection", "type": "in vivo", "protocol": "Thirty six C57b1-16 NCR mice were injected with 5×10^5 C3 cells between the shoulders on the backs of the mice. Twenty four of the mice developed tumors within 20 days. […]\n36 C57b1-16NCR mice were injected with 5×10^5 C3 cells/mouse. Injections were 100 μL made subcutaneously between the shoulders on the backs of the mice. Cells were suspended in low-salt HBSS and suspension uniformity was maintained by gentle vortexing.\n24 mice developed tumors. Their lesion sizes were measured by dial caliper. These mice were shaved, weight and treatment begun (Day 1). Four were sequestered as controls. Control mice received 50 μl DMSO injected intratumorally daily. […]. Injections were made to several regions of tumor. Mice anesthetized with ether or metaphane prior to injection.\nThe treatment regimen and results were as follows: • Day 10: Mice weighed again. […]. The skin at the lesion site of #17 cracked with the “dried-out tumor” showing. It was dissected, and lesion excised and weighed. […]. Remaining control mice (#1, 3, 4) were examined non-invasively and were carrying tumors. • Day 21: Tumor sizes from control mice were measured by dial caliper. […]. […]"}, "[1]": {"tested_on": "HIV LTR promoter (Tat-transactivation)", "experiment": "Tat-transactivation of HIV promoter activity in Cos cells, SEAP assay", "type": "cell-based", "details": "read-out: IC50 for inhibition of HIV Tat-regulated transactivation", "description": "As reported previously, methylated NDGA derivatives can block Sp1 binding to the enhancer sites of a variety of viral promoters including HIV, ICP4 of HSV, E6/E7 gene of HPV (8, 9, 10). We further tested the G4N effect on the Tat-transactivation of HIV promoter activity in Cos cells by the SEAP assay as previously described. […] There were 60-fold or more increase in SEAP expression when Cos cells were cotransfected with the CMV promoter driven Tat gene (8). Such Tat-driven ransactivation of the HIV LTR promoter activity was previously shown to be Sp1 regulated (7, 8). In the presence of G4N, we observed inhibition of HIV transactivation in a dose-dependent fashion (FIG. 14). […]. The differences perhaps are due to the chemical nature of the test compounds affecting the drug uptake to the cells."}, "E6/E7 mRNA": {"tested_on": "E6/E7 mRNA", "experiment": "RT-PCR of HPV-16 E6/E7 transcripts in C3 cells", "details": "40 μM", "quoted_text": "The RTPCR samples were removed after increasing cycles of amplification and resolved on an agarose gel.\nThe RT-PCR product was analyzed on a 2% agarose gel."}, "[2]": {"details": "mice carrying multiple tumors, per mouse"}, "[3]": {"details": "mice with single tumors, per mouse"}},
  "note": "Several values for one entry are separate records, joined by “and”; a condition that tells them apart may be missing. Equal values may be shown once. Marks after values point to notes of the source that are not given here.",
  "data": [
    {"compound": "COc1ccc(C[C@@H](C)[C@@H](C)Cc2ccc(OC)c(OC)c2)cc1OC", "note": "[M4N, tetra-O-methylnordihydroguaiaretic acid]", "values": [
      {"measurement": "body weight changes during the entire experimental period", "setting": "C3 tumor; Tables 1 and 2", "result": "insignificant"},
      {"measurement": "tumor growth in mice", "setting": "C3 tumor; daily injection of 50 μl to 100 μl for several days", "result": "completely stop tumor growth"},
      {"measurement": "average weight of treated lesions", "setting": "C3 tumor; mice carrying multiple tumors, drug injected into one of the tumors", "result": 0.15, "unit": "g"},
      {"measurement": "Body wt. Day 1", "setting": "C3 tumor; [2]", "result": "17.8 g and 20.2 g and 17.5 g"},
      {"measurement": "Body wt. Day 24", "setting": "C3 tumor; [2]", "result": "20.0 g and 17.9 g and 22.1 g"},
      {"measurement": "Wt. Of Excised Lesion, Treated", "setting": "C3 tumor; mice carrying multiple tumors, drug injected directly to the tumor regions, per mouse", "result": "0.11 g and 0.25 g and 0.1 g"},
      {"measurement": "average weight of excised lesions", "setting": "C3 tumor; mice carrying single tumors, control group 1.48 g", "result": 0.142, "unit": "g"},
      {"measurement": "Body wt. Day 1", "setting": "C3 tumor; [3]", "result": "19 g and 18.2 g and 19.5 g and 17 g and 18.9 g and 17.2 g and 17.3 g"},
      {"measurement": "Body wt. Day 16", "setting": "C3 tumor; [3]", "result": "19.2 g and 17.6 g (2×) and 20.0 g"},
      {"measurement": "Body wt. Day 24", "setting": "C3 tumor; [3]", "result": "20.4 g and 20.2 g"},
      {"measurement": "Wt. Of Excised Lesion Day 16", "setting": "C3 tumor; [3]", "result": "0.2 g and 0.4 g and 0.1 g and 0 g"},
      {"measurement": "Wt. Of Excised Lesion Day 24", "setting": "C3 tumor; [3]", "result": "0.1 g and 0 g"},
      {"measurement": "Wt. Of Excised Lesion, taken on Day 15", "setting": "C3 tumor; mouse 17, single tumor", "result": "0.2** g"},
      {"measurement": "IC50", "setting": "[1]", "result": 11, "unit": "µM"},
      {"measurement": "levels of the E7 transcript", "setting": "E6/E7 mRNA; 5 to 72 hours, rtPCR", "result": "clear reduction"},
      {"measurement": "amplified E7 (321 bp) and E6 (204 bp) RT-PCR products", "setting": "E6/E7 mRNA; 71 hours, following 30 cycles of amplification", "result": "barely detectable"}
    ]}
  ]
}
